Reference: ChEMBL document CHEMBL1201862, “PubChem BioAssay data set” (2004)
Calls of active or inactive are those of the source.

Columns and labels:
[1] = biological target: T1, Heat shock factor protein 1 (Mus musculus, UniProt P38532); experiment: decrease of HSF1-responsive luciferase luminescence – cell-based, NIH3T3, dose retest, confirmation (AID 2382); format: functional;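 also: NIH3T3 fibroblasts with HSF1-driven luciferase reporter stressed by proteasome inhibitor MG132; luminescence from HSF1-driven luciferase expression after 8 hours of MG132 stress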
T1 sequence (P38532 whole entry): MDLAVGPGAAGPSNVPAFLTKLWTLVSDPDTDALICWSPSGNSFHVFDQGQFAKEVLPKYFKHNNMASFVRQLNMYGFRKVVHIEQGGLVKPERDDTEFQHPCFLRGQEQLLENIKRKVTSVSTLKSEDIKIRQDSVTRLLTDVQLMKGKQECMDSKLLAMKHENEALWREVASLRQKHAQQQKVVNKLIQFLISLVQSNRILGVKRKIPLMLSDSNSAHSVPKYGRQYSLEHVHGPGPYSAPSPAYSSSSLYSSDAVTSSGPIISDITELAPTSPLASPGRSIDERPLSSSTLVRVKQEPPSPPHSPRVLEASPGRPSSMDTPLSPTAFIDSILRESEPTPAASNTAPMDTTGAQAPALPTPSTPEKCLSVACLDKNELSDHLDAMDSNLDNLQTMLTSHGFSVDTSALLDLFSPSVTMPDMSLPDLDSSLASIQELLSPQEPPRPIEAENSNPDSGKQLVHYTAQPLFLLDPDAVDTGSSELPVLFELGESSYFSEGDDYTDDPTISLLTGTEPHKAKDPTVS

[2] = biological target: Cytochrome P450 2C9 (Homo sapiens, UniProt P11712)
[3] = biological target: Cytochrome P450 2C19 (Homo sapiens, UniProt P33261); experiment: Cytochrome panel assay with activity outcomes. Panel member name: p450-cyp2c19 Compounds with AC50 equal or less than 10 uM are considered active; format: functional; settings: read-out: AC50
[4] = biological target: T2, Cytochrome P450 1A2 (Homo sapiens, UniProt P05177);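 also: PubChem cytochrome P450 panel assay, CYP1A2 panel member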
T2 sequence (P05177 whole entry): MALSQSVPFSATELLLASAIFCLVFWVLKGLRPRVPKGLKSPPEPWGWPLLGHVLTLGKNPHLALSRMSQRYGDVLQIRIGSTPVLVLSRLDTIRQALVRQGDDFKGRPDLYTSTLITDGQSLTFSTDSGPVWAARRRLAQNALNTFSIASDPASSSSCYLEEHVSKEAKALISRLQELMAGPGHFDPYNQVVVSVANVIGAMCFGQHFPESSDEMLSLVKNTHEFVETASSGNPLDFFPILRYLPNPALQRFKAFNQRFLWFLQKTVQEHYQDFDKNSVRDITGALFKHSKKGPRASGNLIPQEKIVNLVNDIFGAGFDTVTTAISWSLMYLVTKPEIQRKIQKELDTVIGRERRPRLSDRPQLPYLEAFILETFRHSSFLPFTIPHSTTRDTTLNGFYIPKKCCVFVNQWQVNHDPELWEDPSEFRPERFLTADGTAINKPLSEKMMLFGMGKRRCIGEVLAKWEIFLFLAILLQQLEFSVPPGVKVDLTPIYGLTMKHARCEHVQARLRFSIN

[5] = biological target: Cytochrome P450 3A4 (Homo sapiens, UniProt P08684);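 also: CYP3A4 tested as one member of a cytochrome P450 panel screen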
[6] = Luminescence Cell-Based Dose Confirmation HTS to Identify Activators of 5'UTR Stem-Loop Driven Alpha-Synuclein mRNA Translation in H4 Neuroglioblastoma Cells. [Related pubchem assays: 1829 (Project Summary), 1814 (Primary HTS)]; format: functional
[7] = Luminescence Cell-Based Dose Response HTS to Identify Activators of Luciferase Translation or Activity in H4 […] Cells. [Related pubchem assays: 1829 (Project Summary), 1814 (Primary HTS)]; format: functional
[8] = test system: H4; experiment: Luminescence Cell-Based Dose Response HTS to Identify Activators of 5'UTR Stem-Loop Driven Prion Protein mRNA Translation in H4 Neuroglioblastoma Cells. [Related pubchem assays: 1829 (Project Summary), 1814 (Primary HTS)]; format: functional; settings: Homo sapiens
[9] = test system: Streptococcus sp. 'group A'; experiment: Streptococcus pyogenes SK(-)GAS viability under kanamycin – luminescence, BacTiterGlo, confirmation, counter-screen for streptokinase expression inhibitor project, dose response (AID 1900); format: functional, organism-based
[10] = biological target: T3, Streptokinase A (Streptococcus pyogenes serotype M1, UniProt P10520); experiment: viability-normalized secreted streptokinase activity reduction – plasminogen activation absorbance, OD405, dose response (AID 1914); format: functional, Streptococcus pyogenes M1 GAS;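 also: secreted streptokinase activity via plasminogen activation per viability signal from cell pellet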
T3 sequence (P10520 whole entry): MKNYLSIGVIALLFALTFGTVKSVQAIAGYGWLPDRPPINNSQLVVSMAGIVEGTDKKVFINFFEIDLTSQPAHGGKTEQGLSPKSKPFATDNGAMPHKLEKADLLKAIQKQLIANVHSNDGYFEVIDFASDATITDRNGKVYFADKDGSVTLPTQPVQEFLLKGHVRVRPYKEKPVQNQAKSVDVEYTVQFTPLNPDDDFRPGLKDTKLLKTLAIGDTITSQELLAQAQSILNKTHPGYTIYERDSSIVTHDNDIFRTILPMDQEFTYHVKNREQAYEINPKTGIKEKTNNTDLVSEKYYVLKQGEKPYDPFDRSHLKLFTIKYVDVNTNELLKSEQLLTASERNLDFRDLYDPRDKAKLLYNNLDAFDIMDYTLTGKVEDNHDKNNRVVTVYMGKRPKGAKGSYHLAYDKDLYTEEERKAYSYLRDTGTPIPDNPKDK

[11] = test system: Streptococcus; experiment: GAS UMAA2166 growth inhibition – luminescence, BacTiterGlo, counter-screen for streptokinase expression inhibitor project, dose response (AID 1915); format: functional, organism-based;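 also: potency for reduction of bacterial viability or growth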
[12] = biological target: Polyadenylate-binding protein 1 (Homo sapiens, UniProt P11940); experiment: MLLE domain peptide-binding blockers, IC50 – biochemical, fluorescence polarization, FITC-PAM2 peptide, dose response (AID 602259); format: functional; settings: read-out: IC50_Mean
Polyadenylate-binding protein 1, sequence (P11940 whole entry, the tested form may be a part): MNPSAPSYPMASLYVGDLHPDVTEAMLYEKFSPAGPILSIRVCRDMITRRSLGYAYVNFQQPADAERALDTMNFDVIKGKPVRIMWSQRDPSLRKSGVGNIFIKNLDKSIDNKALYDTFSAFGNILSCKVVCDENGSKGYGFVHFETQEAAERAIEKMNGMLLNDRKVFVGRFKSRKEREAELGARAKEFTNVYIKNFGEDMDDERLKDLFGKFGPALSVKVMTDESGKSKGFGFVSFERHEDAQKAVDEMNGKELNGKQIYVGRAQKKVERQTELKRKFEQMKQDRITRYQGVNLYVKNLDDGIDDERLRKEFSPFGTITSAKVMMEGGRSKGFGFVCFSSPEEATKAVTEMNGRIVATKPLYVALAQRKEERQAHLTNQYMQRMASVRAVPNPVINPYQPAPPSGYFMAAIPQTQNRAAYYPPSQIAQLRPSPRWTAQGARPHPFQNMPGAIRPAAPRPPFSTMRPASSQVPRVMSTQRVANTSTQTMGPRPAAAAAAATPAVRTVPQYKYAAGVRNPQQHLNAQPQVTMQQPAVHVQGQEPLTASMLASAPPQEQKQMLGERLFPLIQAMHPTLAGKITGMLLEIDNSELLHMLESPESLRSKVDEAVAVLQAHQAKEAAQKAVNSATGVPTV

Cytochrome P450 2C19, sequence (P33261 whole entry): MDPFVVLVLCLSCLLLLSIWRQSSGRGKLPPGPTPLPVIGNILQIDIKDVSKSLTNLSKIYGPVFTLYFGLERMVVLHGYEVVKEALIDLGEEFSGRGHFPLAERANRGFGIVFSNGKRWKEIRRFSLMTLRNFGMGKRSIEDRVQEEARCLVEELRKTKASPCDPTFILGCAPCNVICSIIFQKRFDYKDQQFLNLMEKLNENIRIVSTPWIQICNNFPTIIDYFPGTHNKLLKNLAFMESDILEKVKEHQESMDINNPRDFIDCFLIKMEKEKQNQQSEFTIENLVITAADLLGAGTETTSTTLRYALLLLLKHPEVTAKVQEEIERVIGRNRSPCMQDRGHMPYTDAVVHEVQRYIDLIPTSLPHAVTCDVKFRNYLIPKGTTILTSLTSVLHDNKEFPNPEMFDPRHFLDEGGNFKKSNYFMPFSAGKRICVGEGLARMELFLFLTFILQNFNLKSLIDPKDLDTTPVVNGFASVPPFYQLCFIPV
Cytochrome P450 2C9, sequence (P11712 whole entry): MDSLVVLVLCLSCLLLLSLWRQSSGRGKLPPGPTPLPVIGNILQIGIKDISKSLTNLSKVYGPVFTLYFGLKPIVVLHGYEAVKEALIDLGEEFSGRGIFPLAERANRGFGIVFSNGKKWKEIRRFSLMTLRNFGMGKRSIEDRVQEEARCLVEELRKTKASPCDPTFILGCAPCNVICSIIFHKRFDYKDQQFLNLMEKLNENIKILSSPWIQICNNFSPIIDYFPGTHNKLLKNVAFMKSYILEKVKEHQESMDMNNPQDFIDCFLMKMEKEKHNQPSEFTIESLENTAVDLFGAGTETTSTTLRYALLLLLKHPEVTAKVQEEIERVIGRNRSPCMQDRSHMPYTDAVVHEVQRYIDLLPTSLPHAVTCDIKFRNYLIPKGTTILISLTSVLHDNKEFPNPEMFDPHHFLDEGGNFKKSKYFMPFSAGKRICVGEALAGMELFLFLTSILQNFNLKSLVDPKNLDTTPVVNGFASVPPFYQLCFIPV
Cytochrome P450 3A4, sequence (P08684 whole entry): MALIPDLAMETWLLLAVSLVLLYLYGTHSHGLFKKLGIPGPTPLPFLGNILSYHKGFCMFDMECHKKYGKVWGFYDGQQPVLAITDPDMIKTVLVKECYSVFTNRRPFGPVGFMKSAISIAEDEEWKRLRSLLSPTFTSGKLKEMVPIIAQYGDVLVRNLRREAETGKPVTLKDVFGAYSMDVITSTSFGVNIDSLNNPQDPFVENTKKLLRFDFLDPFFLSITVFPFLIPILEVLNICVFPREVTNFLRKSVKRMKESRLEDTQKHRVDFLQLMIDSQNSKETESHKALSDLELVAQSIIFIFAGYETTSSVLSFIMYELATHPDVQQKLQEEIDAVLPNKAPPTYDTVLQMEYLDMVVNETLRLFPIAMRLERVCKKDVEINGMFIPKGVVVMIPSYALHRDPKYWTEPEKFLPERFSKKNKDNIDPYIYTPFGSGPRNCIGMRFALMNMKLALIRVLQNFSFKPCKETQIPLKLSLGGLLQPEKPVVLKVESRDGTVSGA

In the case of `COc1ccc(/C=N/Nc2nc(C)cc(O)n2)cc1OC`, the EC50 [1] is reported as 29.8 µM (active).

For `COc1ccc(NC(=O)N2CCCC3(CCN(C(=O)Oc4ccccc4)CC3)C2)cc1`, the AC50 [2] was 1.58 µM (inconclusive).

In the case of `CCn1ccc(C(=O)NC2=C(C#N)CCC2)n1`, the AC50 [2] is reported as 14.1 µM (inconclusive).

For `O=C1NCCN1Cc1cccc(Cl)c1`, the AC50 [3] was 2.24 µM (inconclusive) and the AC50 [2] was 2.24 µM (inconclusive).

For `COc1ccc(-n2c(=O)c(-c3cccs3)nc3cnc(N4CCN(C)CC4)nc32)cc1`, the AC50 [4] was 2.51 µM (inconclusive) and the AC50 [5] was 25.1 µM (inconclusive).

For `Cc1noc(C)c1-c1cc(Nc2ccc(F)cc2)ncn1`, the AC50 [3] was 39.8 µM (inconclusive) and the AC50 [5] was 20 µM (inconclusive).

In the case of `C=CCn1c(CCCNC(=O)C(C)(C)C)nc2ccccc21`, the EC50 [1] is reported as > 195 µM (not active).

For `O=C(c1cnsn1)N1CCC(CO)(Cc2cccc(F)c2)CC1`, the EC50 [6] was 14.8 µM (active), the EC50 [7] was 15.2 µM (active) and the EC50 [8] was 75.8 µM (active).

In the case of `Cc1cc(NC(=O)c2ccc3nc(C)sc3c2)no1`, the EC50 [1] is reported as 0.167 µM (active).

With `CC(=O)NC1=NN(C(C)=O)C(c2ccccn2)S1` (centres undefined) the EC50 [1] was > 195 µM (not active).

With `CCN1CCN(c2cc3c(nn2)Oc2ccccc2N3C)CC1` the EC50 [6] was 11.4 µM (active), the EC50 [7] was 44.6 µM (active) and the EC50 [8] was 0.573 µM (active).

In the case of `CN1CCc2ccccc2[C@@H]1Cc1ccccc1NC(=O)c1sc2ccccc2c1Cl`, the AC50 [4] is reported as 5.01 µM (inconclusive) and the AC50 [2] is reported as 3.16 µM (inconclusive).

With `Cc1ccc(C2=NCCn3c2c2ccc(C(F)(F)F)cc2[n+]3[O-])cc1` the EC50 [1] was > 195 µM (not active).

In the case of `COc1ccc(-n2c(S)nnc2COc2cccc(C)c2)cc1`, the EC50 [1] is reported as > 195 µM (not active).

With `Cc1cnc(CNc2cc(-c3cccnc3)ncn2)cn1` the AC50 [4] was 15.8 µM (inconclusive) and the AC50 [5] was 15.8 µM (inconclusive).

For `COc1ccc(-n2c(=O)c(C)nc3cncnc32)cc1`, the AC50 [2] was 39.8 µM (inconclusive).

With `O=c1c(-c2cccc(F)c2)nc2cncnc2n1Cc1ccccc1Cl` the AC50 [5] was 15.8 µM (inconclusive).

In the case of `O=C(Cc1ccccc1F)Nc1ccc(S(=O)(=O)N2CCCCC2)cc1`, the EC50 [1] is reported as > 195 µM (not active).

For `Cn1c(S)nnc1CCCOc1ccc(Cl)cc1Cl`, the EC50 [6] was > 120 µM (not active), the EC50 [7] was 22.5 µM (active) and the EC50 [8] was 7.51 µM (active).

For `CCNc1ncc2nc(C)c(=O)n(Cc3ccc(F)cc3)c2n1`, the AC50 [3] was 6.31 µM (inconclusive) and the AC50 [5] was 7.94 µM (inconclusive).

With `Clc1ccc(COn2ccnc2)cc1Cl` the EC50 [6] was > 120 µM (not active), the EC50 [7] was > 120 µM (not active) and the EC50 [8] was > 120 µM (not active).

With `CN(C)C(=O)c1ccc(-c2nc(Nc3ccncc3)c3ccccc3n2)cc1` the AC50 [3] was 39.8 µM (inconclusive).

With `CCOc1c2ccc(C(=O)NCCc3cccs3)cc2nn1CC` the EC50 [7] was 1.51 µM (active), the EC50 [8] was > 120 µM (not active) and the AC50 [3] was 4.47 µM (inconclusive). The AC50 [2] was 28.2 µM (inconclusive).

For `Cc1ccc(NC(S)=Nc2ccc(Br)cc2)cc1`, the AC50 [5] was 14.1 µM (inconclusive).

In the case of `CCOC(=O)C1(S(=O)(=O)c2ccccc2)CCN(Cc2ccccc2)CC1`, the AC50 [2] is reported as 11.2 µM (inconclusive).

In the case of `Cc1ccc(N2CCN(C(=O)c3cn(CC4CCCCC4)nn3)C(C)C2)cc1` (centres undefined), the EC50 [6] is reported as 2.49 µM (active) and the EC50 [7] is reported as 0.418 µM (active).

In the case of `O=C1C(Cl)=C(NCC2CCCO2)C(=O)N1CCc1ccccc1` (centres undefined), the EC50 [6] is reported as 12.9 µM (active), the EC50 [7] is reported as 15.4 µM (active) and the EC50 [8] is reported as 13.1 µM (active).

For `C=CCNc1nnnc2c1sc1nc(N3CCOCC3)c3c(c12)CCCC3`, the EC50 [1] was > 195 µM (not active).

In the case of `N#C/C(=C\c1ccc(O)c(O)c1)C(=O)OCCc1cccs1`, the AC50 [5] is reported as 20 µM (inconclusive).

For `COc1ccc(-n2c(=O)c(-c3cc(F)cc(F)c3)nc3cncnc32)cc1`, the AC50 [3] was 10 µM (inconclusive).

With `CC(=O)c1ccc(-n2nnnc2SCC(=O)Nc2cccc(NC(=O)c3ccco3)c2)cc1` the AC50 [2] was 7.08 µM (inconclusive).

With `CCc1c(C(=O)OC)ncc2[nH]c3cc(OC)c(OC)cc3c12` the AC50 [5] was 15.8 µM (inconclusive).

In the case of `COC(=O)[C@@H]1C[C@H]1[C@@H](NC(=O)c1ccccc1)c1ccccc1`, the AC50 [2] is reported as 39.8 µM (inconclusive).

In the case of `O=c1c(-c2ccc(F)cc2)nc2cnc(Nc3ccccc3)nc2n1C[C@H]1CCCO1`, the AC50 [4] is reported as 2 µM (inconclusive) and the AC50 [5] is reported as 12.6 µM (inconclusive).

With `C/C(=N\NC(=O)CSc1[nH]c(C)nc1[N+](=O)[O-])c1ccc(F)cc1` the EC50 [6] was 15 µM (active), the EC50 [7] was 14.3 µM (active) and the EC50 [9] was > 150 µM (not active). For the same compound, the EC50 [8] was 97.5 µM (active), the EC50 [10] was > 150 µM (not active) and the EC50 [11] was > 150 µM (not active).

In the case of `O=C(c1ccccn1)c1cc2ccccc2n1S(=O)(=O)c1ccccc1`, the EC50 [6] is reported as 20.5 µM (active) and the EC50 [7] is reported as 55.9 µM (active).

For `O=C(CCNC(=O)c1ccccc1)OCN1C(=O)c2ccccc2C1=O`, the AC50 [3] was 39.8 µM (inconclusive) and the AC50 [5] was 15.8 µM (inconclusive).

For `Cc1cccc(-c2nnc(SCc3ccccc3)o2)c1`, the AC50 [2] was 39.8 µM (inconclusive).

With `CCOC(=O)c1ccc(N[S+]([O-])C23CC4CC(CC(C4)C2)C3)cc1` (centres undefined) the EC50 [6] was > 120 µM (not active), the EC50 [7] was > 120 µM (not active) and the EC50 [8] was > 120 µM (not active).

For `COc1ccc(COC(=O)N/N=C2/C[C@@H](O)[C@@H](O)[C@@H]3[C@H]4C(=O)N(c5ccc(F)cc5F)C(=O)[C@@H]4CC[C@@H]23)cc1`, the AC50 [5] was 3.16 µM (inconclusive).

In the case of `COc1cc(SC)ccc1C(=O)OCC(=O)NC1CCCC1`, the EC50 [1] is reported as > 195 µM (not active).

For `NNC(=O)CNC(=O)CNS(=O)(=O)c1ccccc1`, the EC50 [1] was > 195 µM (not active).

For `C[C@](N)(COP(=O)(O)O)C(=O)O`, the AC50 [3] was 25.1 µM (inconclusive) and the AC50 [4] was 31.6 µM (inconclusive).

In the case of `COc1cc(O)c2c(O)c3c(c4c2c1[C@@]1(C4)C(C)=CCCC1(C)C)[C@H](O)[C@@]1(O)CC(O)=C(C(N)=O)C(=O)[C@]1(O)C3=O`, the AC50 [4] is reported as 3.16 µM (inconclusive) and the AC50 [2] is reported as 3.16 µM (inconclusive).

For `O=S(=O)(c1ccccc1)c1c[nH]c(O)n1`, the EC50 [1] was > 195 µM (not active).

With `COc1ccc(NC(=O)Nc2ccc([N+](=O)[O-])cc2)cn1` the IC50 [12] was 42.1 µM (inactive).

With `COC(=O)c1ccc2ccn(CC(=O)NC3CCCCC3)c2c1` the AC50 [5] was 4.47 µM (inconclusive).

With `Cc1ccc(C2N(c3ccccc3)C(=S)N3CCCN23)cc1` (centres undefined) the EC50 [1] was > 195 µM (not active).

For `COC(=O)c1cc(/C=C/c2ccccc2)[nH]n1`, the EC50 [6] was 25.4 µM (active), the EC50 [7] was 6.84 µM (active) and the EC50 [8] was 18.1 µM (active).

With `CC(C)Sc1nc2sccc2c(=O)n1-c1ccccc1` the EC50 [1] was > 195 µM (not active).
